Test results as given in the NIST ThermoML archive (doi:10.1021/acs.jced.8b00196).
± gives the expanded uncertainty stated by the source.

Columns and labels:
[1] = Molar enthalpy of transition or fusion; settings: Crystal; DSC
[2] = Crystal; DSC

Molar enthalpy of transition or fusion [1]: 4.21 ± 0.311 kcal/mol | Triple point temperature [2]: 323.4 ± 2.1 K
SMILES: O=C(c1ccccc1)c1ccccc1 [benzophenone]
